In assay [1] the target is T1, Cysteinyl leukotriene receptor 1 (Homo sapiens, UniProt Q9Y271). Note: in other assays of this panel Not Active means under 50% inhibition at 10 µM.
T1 sequence (Q9Y271 whole entry): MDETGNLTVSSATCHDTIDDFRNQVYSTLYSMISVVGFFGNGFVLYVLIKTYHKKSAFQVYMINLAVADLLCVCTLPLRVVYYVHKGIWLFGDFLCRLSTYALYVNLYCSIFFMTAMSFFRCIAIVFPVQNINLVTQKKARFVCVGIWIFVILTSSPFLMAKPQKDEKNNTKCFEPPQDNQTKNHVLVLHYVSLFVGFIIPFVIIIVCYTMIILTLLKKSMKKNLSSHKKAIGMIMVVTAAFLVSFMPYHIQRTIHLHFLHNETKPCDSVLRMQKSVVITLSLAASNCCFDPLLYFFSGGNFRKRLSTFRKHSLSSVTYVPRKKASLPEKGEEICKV
It counts as cell membranes, CHO-K1, Membrane. The following applies: cho-k1.

Assay [2] in a line: DRUGMATRIX: Phorbol Ester radioligand binding (ligand: [3H] PDBu). Format: cell membranes, Mus musculus, ICR, Brain, Membrane. The note with it: Not Active = under 50% inhibition at 10 µM.
The nature of assay [3]: DRUGMATRIX: Purinergic P2X radioligand binding (ligand: [3H] alpha, beta-Methylene-ATP). It counts as cell membranes, Oryctolagus cuniculus, New Zealand albino, Urinary bladder, Membrane. The note with it: Not Active = under 50% inhibition at 10 µM.
For assay [4], the target named is Protein phosphatase 3 catalytic subunit alpha (Homo sapiens, UniProt Q08209). Also on record: species or system Escherichia coli.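 Note: inhibition of calcineurin (PP2B) enzyme activity, measured with DiFMUP as the substrate; in other assays of this panel Not Active means under 50% inhibition at 10 µM.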
Assay [5] addresses T2, Polyunsaturated fatty acid lipoxygenase ALOX15 (Oryctolagus cuniculus, UniProt P12530).
T2 sequence (P12530 whole entry): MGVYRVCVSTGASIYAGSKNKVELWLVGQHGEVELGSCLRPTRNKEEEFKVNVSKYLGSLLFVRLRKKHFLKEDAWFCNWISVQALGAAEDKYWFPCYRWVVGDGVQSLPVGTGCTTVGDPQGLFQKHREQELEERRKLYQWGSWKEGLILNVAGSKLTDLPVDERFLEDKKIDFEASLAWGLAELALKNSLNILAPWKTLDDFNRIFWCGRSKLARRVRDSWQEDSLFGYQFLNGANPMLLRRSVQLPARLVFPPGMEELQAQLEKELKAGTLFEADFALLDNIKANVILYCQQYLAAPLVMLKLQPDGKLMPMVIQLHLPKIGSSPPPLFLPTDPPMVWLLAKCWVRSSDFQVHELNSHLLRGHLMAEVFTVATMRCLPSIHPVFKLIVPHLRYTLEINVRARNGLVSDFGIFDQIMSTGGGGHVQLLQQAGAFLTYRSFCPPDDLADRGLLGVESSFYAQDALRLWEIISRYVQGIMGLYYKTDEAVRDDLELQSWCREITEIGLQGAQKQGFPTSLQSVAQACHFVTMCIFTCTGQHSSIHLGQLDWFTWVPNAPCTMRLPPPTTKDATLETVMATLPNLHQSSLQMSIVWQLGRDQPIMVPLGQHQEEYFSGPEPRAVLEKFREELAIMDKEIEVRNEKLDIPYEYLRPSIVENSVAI
The assay is described as follows: biochemical. The following applies: reticulocytes. It counts as tissue-based, Reticulocytes.

The target of assay [6] is T3, C-C chemokine receptor type 4 (Homo sapiens, UniProt P51679). Note: in other assays of this panel Not Active means under 50% inhibition at 10 µM.
T3 sequence (P51679 whole entry): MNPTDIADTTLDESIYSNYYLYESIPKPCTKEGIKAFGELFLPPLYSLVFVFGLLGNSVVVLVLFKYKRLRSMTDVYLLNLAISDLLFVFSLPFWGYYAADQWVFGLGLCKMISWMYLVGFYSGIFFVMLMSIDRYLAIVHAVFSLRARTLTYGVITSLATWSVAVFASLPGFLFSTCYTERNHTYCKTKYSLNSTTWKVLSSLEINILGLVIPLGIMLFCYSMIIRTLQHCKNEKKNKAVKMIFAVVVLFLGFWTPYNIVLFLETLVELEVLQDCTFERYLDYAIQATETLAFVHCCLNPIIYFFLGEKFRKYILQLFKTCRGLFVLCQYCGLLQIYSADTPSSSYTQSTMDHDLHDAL
It counts as cell membranes, Membrane. The following applies: chem-1.

Assay [7] deals with T4, Nitric oxide synthase, inducible (Mus musculus, UniProt P29477).
T4 sequence (P29477 whole entry): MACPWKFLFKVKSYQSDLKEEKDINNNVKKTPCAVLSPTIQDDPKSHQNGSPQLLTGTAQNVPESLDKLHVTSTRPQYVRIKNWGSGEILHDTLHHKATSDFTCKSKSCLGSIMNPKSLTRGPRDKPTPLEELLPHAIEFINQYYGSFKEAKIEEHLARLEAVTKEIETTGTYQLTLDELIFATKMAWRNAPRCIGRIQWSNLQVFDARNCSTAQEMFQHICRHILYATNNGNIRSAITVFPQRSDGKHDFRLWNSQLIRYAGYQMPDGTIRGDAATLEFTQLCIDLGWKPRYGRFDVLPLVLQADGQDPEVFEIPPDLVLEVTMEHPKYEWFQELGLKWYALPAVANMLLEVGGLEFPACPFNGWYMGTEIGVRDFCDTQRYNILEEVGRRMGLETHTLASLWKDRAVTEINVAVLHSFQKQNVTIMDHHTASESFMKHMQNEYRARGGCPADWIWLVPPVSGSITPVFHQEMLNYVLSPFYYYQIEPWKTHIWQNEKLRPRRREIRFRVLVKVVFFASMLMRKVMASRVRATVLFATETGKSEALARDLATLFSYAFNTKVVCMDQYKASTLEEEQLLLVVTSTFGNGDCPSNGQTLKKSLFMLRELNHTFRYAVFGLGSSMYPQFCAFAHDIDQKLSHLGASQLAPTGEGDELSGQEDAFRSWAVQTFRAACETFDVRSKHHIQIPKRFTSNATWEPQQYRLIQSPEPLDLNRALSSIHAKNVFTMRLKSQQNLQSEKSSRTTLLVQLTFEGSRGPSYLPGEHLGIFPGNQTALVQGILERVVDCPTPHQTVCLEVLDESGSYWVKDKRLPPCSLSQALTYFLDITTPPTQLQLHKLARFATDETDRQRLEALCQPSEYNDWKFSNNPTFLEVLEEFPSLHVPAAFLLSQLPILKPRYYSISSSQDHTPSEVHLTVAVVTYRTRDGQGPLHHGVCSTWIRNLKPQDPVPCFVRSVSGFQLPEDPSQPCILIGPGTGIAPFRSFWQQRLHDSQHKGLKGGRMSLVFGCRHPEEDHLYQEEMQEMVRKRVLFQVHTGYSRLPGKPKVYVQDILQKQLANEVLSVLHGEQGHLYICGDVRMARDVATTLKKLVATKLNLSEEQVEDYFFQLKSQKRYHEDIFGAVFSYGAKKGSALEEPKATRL
Also on record: species or system Escherichia coli.

In the next assay the target is Melanocortin receptor 5 (Homo sapiens, UniProt P33032). It counts as cell membranes, HEK293, Membrane. The note with it: hek293. Note: in other assays of this panel Not Active means under 50% inhibition at 10 µM.
Another assay deals with Mu-type opioid receptor (Homo sapiens, UniProt P35372). The assay is described as follows: DRUGMATRIX: Opiate mu (OP3, MOP) radioligand binding (ligand: [3H] Diprenorphine). It counts as cell membranes, CHO-K1, Membrane. The following applies: Not Active = under 50% inhibition at 10 µM.

Structures are written as SMILES. Where a SMILES comes first, the peptide text is derived from it. Bridges are numbered along the chain shown (N, C = ends). [ ]: non-standard residue; d: D form. The star is where a group is joined. Ileψ(thiazoline)Cys = CC[C@H](C)[C@H](N)C1=N[C@H](C(=O)*)CS1; dOrn = NCCC[C@@H](N)C(=O)O

Mu-type opioid receptor, sequence (P35372 whole entry): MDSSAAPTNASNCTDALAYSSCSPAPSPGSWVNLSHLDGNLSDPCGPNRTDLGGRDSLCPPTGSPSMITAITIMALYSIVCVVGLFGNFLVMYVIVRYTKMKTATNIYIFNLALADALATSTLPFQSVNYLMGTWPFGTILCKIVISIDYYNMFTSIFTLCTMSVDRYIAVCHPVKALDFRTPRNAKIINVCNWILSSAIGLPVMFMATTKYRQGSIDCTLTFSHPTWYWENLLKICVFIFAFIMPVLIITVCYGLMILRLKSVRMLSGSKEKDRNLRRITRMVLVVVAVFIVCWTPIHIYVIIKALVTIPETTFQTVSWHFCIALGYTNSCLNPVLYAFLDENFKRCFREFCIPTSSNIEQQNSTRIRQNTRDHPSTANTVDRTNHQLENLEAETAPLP
Melanocortin receptor 5, sequence (P33032 whole entry): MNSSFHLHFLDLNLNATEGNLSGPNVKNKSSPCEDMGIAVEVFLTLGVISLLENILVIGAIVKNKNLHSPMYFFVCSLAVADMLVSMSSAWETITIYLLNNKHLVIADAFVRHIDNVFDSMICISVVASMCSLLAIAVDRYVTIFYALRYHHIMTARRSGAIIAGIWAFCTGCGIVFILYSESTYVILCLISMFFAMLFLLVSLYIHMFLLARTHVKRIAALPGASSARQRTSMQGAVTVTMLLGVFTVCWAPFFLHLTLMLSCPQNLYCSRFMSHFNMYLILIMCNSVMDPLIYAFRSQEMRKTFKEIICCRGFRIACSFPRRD

For orientation: IC50 means the point on the concentration scale where inhibition reaches its midpoint. For orientation: Ki means the equilibrium dissociation constant of an inhibitor or competing ligand from its target. Consider `CC[C@H](C)[C@H](N)C1=N[C@H](C(=O)N[C@@H](CC(C)C)C(=O)N[C@H](CCC(=O)O)C(=O)N[C@H](C(=O)N[C@H]2CCCCNC(=O)[C@H](CC(N)=O)NC(=O)[C@@H](CC(=O)O)NC(=O)[C@H](Cc3cnc[nH]3)NC(=O)[C@@H](Cc3ccccc3)NC(=O)[C@H]([C@@H](C)CC)NC(=O)[C@@H](CCCN)NC2=O)[C@@H](C)CC)CS1` [BACITRACIN] ({Ileψ(thiazoline)Cys}-L[dE]IK[dOrn]I[dF]H[dD]N; lactam 4-C), for which the IC50 result in [1], in assay [2], in assay [3], in assay [4], in assay [5] and in [6] was “Not Active” throughout. Besides, the IC50 entry (in [7]; against Melanocortin receptor 5; at Mu-type opioid receptor (cho-k1)) was “Not Active” throughout. In addition, the inhibition constant (Ki) result in assay [2] and in assay [3] was “Not Active” throughout.
For `CCOC(=O)c1ccc(N)cc1` [BENZOCAINE], the half-inhibitory concentration (IC50) result in assay [1], in assay [2], in assay [3], in [4], in [5] and in assay [6] was “Not Active” throughout. Moreover, the half-inhibitory concentration (IC50) result (in assay [7]; on Melanocortin receptor 5; on Mu-type opioid receptor (cho-k1)) was “Not Active” each time. Besides, the inhibitory constant (Ki) entry in assay [2] and in assay [3] was “Not Active” in each case.
As to `OCc1ccccc1` [BENZYL ALCOHOL], the half-maximal inhibitory concentration (IC50) result in assay [1], in assay [2], in assay [3], in assay [4], in assay [5] and in assay [6] was “Not Active” each time. For the same molecule, the IC50 entry (in assay [7]; at Melanocortin receptor 5; on Mu-type opioid receptor (cho-k1)) was “Not Active” each time. Also, the Ki result in assay [2] and in assay [3] was “Not Active” in each case.
`CC(C)(Oc1ccc(CCNC(=O)c2ccc(Cl)cc2)cc1)C(=O)O` [BEZAFIBRATE]: the 50% inhibitory concentration (IC50) result in [1], in assay [2], in assay [3], in [4], in assay [5] and in assay [6] was “Not Active” in each case. Also, the half-maximal inhibitory concentration (IC50) result (in [7]; against Melanocortin receptor 5; at Mu-type opioid receptor (cho-k1)) was “Not Active” in each case. For the same molecule, the inhibitory constant (Ki) result in [2] and in [3] was “Not Active” in each case.
As for `Oc1c(Cl)cc(Cl)cc1Sc1cc(Cl)cc(Cl)c1O` [BITHIONOL], the half-maximal inhibitory concentration (IC50) result in assay [1], in assay [2], in [3], in assay [4], in assay [5] and in [6] was “Not Active” each time. Besides, the values for the IC50 entry (in [7]; against Melanocortin receptor 5; on Mu-type opioid receptor (read-out: IC50)) were “Not Active”, “Not Active” and 5.51 µM, respectively. Moreover, the results for the inhibition constant (Ki) result (in [2]; in [3]; at Mu-type opioid receptor) were “Not Active”, “Not Active” and 2.24 µM, respectively.
On to `Brc1ccccc1` [BROMOBENZENE], for which the IC50 result in assay [1], in assay [2], in assay [3], in assay [4], in [5] and in assay [6] was “Not Active” throughout. Further, the IC50 entry (in [7]; against Melanocortin receptor 5; on Mu-type opioid receptor (cho-k1)) was “Not Active” in each case. For the same molecule, the Ki entry in [2] and in [3] was “Not Active” in each case.
On to `CCCCOC(=O)c1ccc(N)cc1` [BUTAMBEN], for which the IC50 entry in assay [1], in assay [2], in [3], in [4], in assay [5] and in assay [6] was “Not Active” each time. In addition, the IC50 entry (in assay [7]; against Melanocortin receptor 5; on Mu-type opioid receptor (cho-k1)) was “Not Active” in each case. In addition, the inhibition constant (Ki) entry in [2] and in assay [3] was “Not Active” in each case.
`CC[C@@]1(O)C(=O)OCc2c1cc1n(c2=O)Cc2cc3ccccc3nc2-1` [CAMPTOTHECIN]: the IC50 entry in assay [1], in assay [2], in [3], in assay [4], in assay [5] and in assay [6] was “Not Active” throughout. The IC50 entry (in assay [7]; at Melanocortin receptor 5; at Mu-type opioid receptor (cho-k1)) was “Not Active” throughout. In addition, the Ki entry in [2] and in [3] was “Not Active” throughout.
In the case of `COCc1c(C(C)C)nc(C(C)C)c(/C=C/[C@@H](O)C[C@@H](O)CC(=O)O)c1-c1ccc(F)cc1` [CERIVASTATIN], the IC50 entry in [1], in assay [2], in assay [3], in [4], in [5] and in [6] was “Not Active” each time. Moreover, the IC50 result (in assay [7]; at Melanocortin receptor 5; at Mu-type opioid receptor (cho-k1)) was “Not Active” in each case. In addition, the Ki result in assay [2] and in assay [3] was “Not Active” each time.

The values are drawn from ChEMBL document CHEMBL1909046, “DrugMatrix in vitro pharmacology data”.
